Entries after “also recorded” stand apart in the source; their conditions may differ.
What was measured:
[1] = H2O2 (antioxidant) activity assay; type: biochemical
Text: FIG. 17(A-F) is an exemplary embodiment of identification of novel ERO1α inhibitors by high throughput screening in accordance with the present disclosure. FIG. 17A: A scheme of an ERO1α activity assay. FIG. 17B: Screening of chemical libraries in the ERO1α activity assay. FIG. 17C: The inhibitory effect of selected compounds on ERO1α activity. FIG. 17D: The inhibitory effect of selected compounds on PDI activity. FIG. 17E: The inhibitory effect of selected compounds on H2O2 activity. FIG. 17F: The inhibitory effect of selected compounds on thiol-reacting activity. The data represent the mean±SD (n=3). *P<0.05, **P<0.01, ***P<0.001, and ****P<0.0001 vs. vehicle control, Student's t-test.
To identify a novel ERO1α inhibitor, 5800 compounds were screened using an ERO1α activity assay (FIG. 17A and FIG. 17B). […] The selected compounds were further tested in assays measuring PDI, antioxidant, and thiol-reacting activities (FIG. 17D through FIG. 17F). […] B12 inhibited P-selectin exposure and αIIbβ3 activation in agonist-activated mouse and human platelets in a concentration-dependent manner (FIG. 18B through FIG. 18E).

[2] = tested on: mouse platelets; assay: Flow cytometry of P-selectin exposure and αIIbβ3 integrin activation, mouse platelets; type: cell-based; settings: 3 to 10 μM, mouse platelets, thrombin or CRP
Protocol: FIG. 10(A-E) is an exemplary embodiment of 15E9 not affecting platelet activation and aggregation in accordance with the present disclosure. Mouse platelets were treated with 0.02-0.03 (FIG. 10A P-selectin, FIG. 10B aIIbβ3) or 0.025 U/ml thrombin (FIG. 10C) in the presence of 10 μg/ml mouse IgG2a (IgG2a) or a blocking anti-ERO1α antibody (15E9). Flow cytometry (FIG. 10(A-B)) and aggregation (FIG. 10C) assays were performed. FIG. 10D: Human platelets were treated with 0.025 U/ml thrombin in the presence of mouse IgG2a (mIgG2a) or 10 μg/ml 15E9 and 16B6, followed by measuring aggregation. […] P values determined by unpaired Student's t-test (vs. mIgG1).
FIG. 18(A-R) is an exemplary embodiment of novel small-molecule inhibitors recapitulating the defect in Ero1α (endoplasmic reticulum oxidoreductase 1a)-null platelets in accordance with the present disclosure. […] After incubation with a different concentration of B12-5, the specific interaction between B12-5 and ERO1α was measured by subtracting the nonspecific binding. The KD value was calculated from the Kon and Koff values. […] P values determined by ANOVA and Dunnett test (FIG. 18(B-E), FIG. 18(1-L), and FIG. 18(O-R) [for B12-5]) or Student t test (FIG. 18M, FIG. 18N, and FIG. 18(O-R) [for BAPTA (1,2-bis(o-aminophenoxy)ethane-N,N,N′,N′-tetraacetic acid)]). […]

With `O=C(CSc1nc(O)cc(O)n1)N1c2ccccc2Sc2ccccc21` [B12-5] the “H2O2 inhibition at 100 μM (%)” value ([1]; 100 μM) was 6.6 ± 2%, the “effect on H2O2 (antioxidant) activity” value ([1]; at or up to 100 μM) was “minimal effect; also recorded: did not affect” and the “P-selectin exposure and αIIbβ3 activation” value [2] was “significantly reduced”.
